Source: US4992470A, “Method of enhancing immune response of mammals” (Iowa State University Research Foundation, Inc., priority 1990, dated 1991)

Tests used:
[1] = Stability of HMB (and KIC) in the rumen: incubation in diluted rumen fluid; assay type: in vitro ADME, steer
Method: Rumen fluid was collected from a fistulated steer. After filtration and dilution (1:4) with an artificial saliva, 25ml of the solution was added to 50ml plastic tubes. Each tube was fitted with a one-way valve to allow gases to escape while not allowing air into the tube. Each tube was then gassed with C02 and incubated at 39° C. After 30 min a solution of KIC or HMB was added to the tube in concentrations to simulate what would be present in the rumen of an animal consuming .05% of the diet as KIC or HMB. It was estimated that a 50uM concentration would be attained in this case. At timed intervals 50ul samples of this rumen fluid were taken and analyzed for KIC and HMB.

lymphocytes = test: In vitro effects of leucine or leucine metabolites on PHA-stimulated lymphocyte blastogenesis (3H-thymidine incorporation); assay type: cell-based, bovine; conditions: for activation at 1000 µM: Bos taurus, Lymphocyte, 72 h, final concentration 1 mM, PHA stimulated, read-out: % Change from No Additive, in vitro lymphocyte blastogenesis (Mean Percent Change, SEM)
Method: Lymphocyte Blastogenesis Determinations. Blood collections, lymphocyte isolation and blastogenesis assays were performed on isolated bovine cells by using a 3-d culture procedure as described previously in Kuhlman, et al. (1988), J. Nutr., 118:1564-1569.
Isolated lymphocytes were exposed to 1 and 10 mM Leu and KIC and the metabolites isovalarate, β-hydroxy-β-methyl butyrate (HMB), β-hydroxy-β-methyl glutarate, butyrate, acetate, acetone, acetoacetate, and β-hydroxy butyrate (BOHB). The cells were then stimulated with the mitogen phytohemagglutinin, and incorporation of ^3 H-thymidine into the DNA of the dividing lymphocytes was measured.
Leucine and Leucine Metabolites. Most of the compounds listed in Table B were purchased from Sigma Chemical Company, St. Louis, MO. KIC was purchased from SOBAC (Paris, France), HMB was synthesized as described in Example 1, and the calcium salt of HMB was purified by crystallization in 95% ethanol. The calcium salt was converted to a sodium salt form and used in subsequent assays. The pH of all compounds was adjusted to approximately 7.3. Compounds were passed through a 0.2-um filter assembly to assure sterility.

isolated lymphocytes = test: HMB effects on lymphocyte function in lambs (ex vivo mitogen-stimulated blastogenesis after feeding)
Method: Animals and Experimental Design. Three sets of twin lambs were housed individually in fiberglass pens. Animals were randomly assigned to control or HMB diets, using a standard basal diet with and without 0.05% HMB.
Blood Sampling and Lymphocyte Preparation. In the first experiment, animals were bled for lymphocyte blastogenesis assays and T-cell subset analysis 38, 45, and 52 days after dietary treatments began. Blood (50 ml) was collected, aseptically, via jugular venepuncture into 10 ml acid-citrate-dextrose anticoagulant (44 g trisodium citrate, 16 g citric acid and 50 g dextrose per 1 of triple-distilled water). Blood was centrifuged, the buffy coat removed, and 1 volume of buffy coat was diluted with 0.5 volume of plasma which was added to 2 volumes of Sepracell-MN (Sepratech Corporation, Oklahoma City, Okla.). After further centrifugation at 1500 x g for 25 min, the mononuclear layer was removed and washed twice with Hanks' balanced salt solution (HBSS; Gibco, Grand Island, N.Y.) by centrifuging at 150 x g for 15 min. The remaining white blood cells were resuspended in HBSS, and the total number of white blood cells was determined by using an automated cell counter (Coulter Electronics, Hialeah, Fla.). The concentration of the cells was adjusted to 1×20^6 " cells/ml with HBSS.
Lymphocyte Blastogenesis Determinations. Blastogenesis assays were performed on isolated lymphocytes by using a 3-d culture procedure as described previously. Briefly, isolated lymphocytes were cultured in microtiter plates with 2×10^5 " cells in 0.15 ml of culture medium/well. Culture medium consisted of RPMI media-1640 (Gibco, Grand Island, N.Y.) containing 15% heat-inactivated fetal bovine serum and 1% antibiotic-antimycotic solution (Gibco, Grand Island, N.Y.). Unstimulated and mitogen-stimulated cultures were assayed in triplicate. Mitogens used were phytohemagglutinin-P (PHA), concanavalin A (ConA) and pokeweed mitogen (PWM). PHA was purchased from Difco Laboratories, Detroit, MI; ConA from Miles Laboratories, Elkhart, IN; and PWM from Gibco, New York, N.Y. Microtiter plates were incubated at 37° C. in a humidified 5% CO2 atmosphere. After 48 h, 0.25 uCi of ^3 H-thymidine (New England Nuclear, Boston, Mass.) was added to each well. Eighteen hours later, the cultures were harvested onto glass-fiber filters with an automated sample harvester (Flow Laboratories, Rockville, Mo.), filters were placed in 10 ml CytoScint scintillation solution (ICN Biomedicals, Irvine, CA), and radioactivity was counted in a liquid scintillation counter. This procedure is similar to that described by Kuhlman, et al., J. Nutr., 118:1564-1569.

Mycoplasma hyopneumoniae = test: Pigs infected with Mycoplasma: lung lesions, lung fluorescent antibodies, antibody titers; assay type: in vivo
Description: (§1) Twelve specific pathogen free (SPF) pigs 4-5 weeks of age were distributed into two groups, each being blocked by gender and litter. All pigs were fed approximately 4% of their body weight of a commercially purchased starter ration. Pigs were penned individually and allowed free access to water.
(§2) Diets were supplemented with one of two dietary treatments: Control (limestone)(n=6) and HMB (n=6). Dietary treatments were fed at 0.05% of the body weight. HMB was synthesized by the method of Example 1. One week later, pigs were injected with 5 ml/30 kg body weight of a 20% suspension of sheep red blood cells (SRBC) subcutaneously.
(§3) Fourteen days post dietary treatments, all pigs were challenged via intratracheal inoculation with 5 ml of a ground lung suspension. The suspension was derived from pig pneumonic tissue obtained from a pig experimentally inoculated with Mycoplasma hyopneumoniae. Blood samples were collected once a week for the evaluation of antibodies produced in response to the SRBC and Mycoplasma hyopneumoniae antigenic stimuli. An agglutination assay was used to determine antibody titers produced against SRBC. Titers to Mycoplasma hyopneumoniae were determined using a serum complement fixation assay. At necropsy, the extent of macroscopic pneumonia lesions was recorded and samples from all pigs were submitted for histopathology to assay microscopic lesions. Lung and bronchi samples were cultured and evaluated for the presence of Mycoplasma species (i.e., M. hyorhinis, M. hyosynoviae, and M. hyopneumoniae) and other easily isolated bacteria (i.e., bordetella, pasteurella, and hemophilus).

[2] = system: Bordetella broncheseptica; test: Pigs: nasal degeneration scores; assay type: in vivo; conditions: HMB-fed pigs
Description: as §1, §2
(§4) The iliac lymph nodes, liver, spleen, and gastrocnemius muscle were removed from the carcass and weighed. The nasal cavity was examined for evidence of Bordetella broncheseptica infection that will result in nasal turbinate degeneration. Nasal degeneration was scored as to severity with 0 indicating no lesions and the highest score, 3, corresponding to […] degeneration.

[3] = system: sheep red blood cells (SRBC); test: Pigs: antibody titers against sheep red blood cells (agglutination assay); assay type: in vivo; conditions: HMB-fed pigs; control 11.6; * p < .05
Description: as §1, §2
as §3, with “Blood samples were collected once a week for the evaluation of antibodies produced in response to the SRBC and Mycoplasma hyopneumoniae antigenic stimuli. An agglutination assay was used to determine antibody titers produced against SRBC.” left out

[4] = Pigs: organ weights at necropsy; assay type: in vivo; conditions: HMB-fed pigs
Description: as §1, §2, §4

[5] = system: Mycoplasma species and other easily isolated bacteria; test: Pigs: bacteria cultured from bronchi; assay type: in vivo; conditions: HMB-fed pigs
Description: as §1, §2
as §3, with “Blood samples were collected once a week for the evaluation of antibodies produced in response to the SRBC and Mycoplasma hyopneumoniae antigenic stimuli. An agglutination assay was used to determine antibody titers produced against SRBC.” left out

T lymphocytes [6] = test: Activation of immune function of T lymphocytes, HMB compared with KIC; design: species or system mammals
[7] = Stability of HMB (and KIC) in the rumen: incubation in diluted rumen fluid; assay type: in vitro ADME, steer; conditions: as far as is known; general statement, oral administration to ruminants
[8] = rat feeding studies; cited from earlier work
[9] = cited from earlier work
T lymphocytes [10] = conditions: U.S. Pat. No. 4,835,185; cited from earlier work
[11] = U.S. Pat. No. 4,835,185; cited from earlier work
[12] = Hygroscopicity of HMB salts; assay type: physicochemical; conditions: compared with Ca-HMB
[13] = 0 min after addition, rumen fluid diluted 1:4, 39° C., initial concentration of KIC was estimated
[14] = 15 min after addition, rumen fluid, 39° C.
[15] = 30 min after addition, rumen fluid, 39° C.
[16] = 60 min after addition, rumen fluid, 39° C.
[17] = 240 min after addition, rumen fluid, 39° C.
[18] = 480 min after addition, rumen fluid, 39° C.
[19] = Before Treatment (baseline of HMB group)

CC(C)(O)CC(=O)O [HMB, β-hydroxy-β-methyl butyric acid]
Stability in rumen environment (in words) [1]: quite stable in a rumen environment | KIC / HMB in rumen fluid [1, 13]: 60 µM | KIC / HMB in rumen fluid [1, 14]: 76 µM | KIC / HMB in rumen fluid [1, 15]: 81 µM | KIC / HMB in rumen fluid [1, 16]: 71 µM | KIC / HMB in rumen fluid [1, 17]: 74 µM | KIC / HMB in rumen fluid [1, 18]: 74 µM | activation at 1000 µM (lymphocytes): 78% | Decays Per Min of 3H Thymidine Incorporated into Isolated Lymphocytes, PHA Stimulation (isolated lymphocytes; After Treatment, diet with 0.05% HMB, control 15,000): 18,000 Decays Per Min | Decays Per Min of 3H Thymidine Incorporated into Isolated Lymphocytes, PWM Stimulation (isolated lymphocytes; After Treatment, diet with 0.05% HMB, control 18,000): 25,000 Decays Per Min | Decays Per Min of 3H Thymidine Incorporated into Isolated Lymphocytes, ConA Stimulation (isolated lymphocytes; After Treatment, diet with 0.05% HMB, control 19,000): 21,000 Decays Per Min | Decays Per Min of 3H Thymidine Incorporated into Isolated Lymphocytes, ConA Stimulation (isolated lymphocytes; [19]): 41,000 Decays Per Min | Decays Per Min of 3H Thymidine Incorporated into Isolated Lymphocytes, PHA Stimulation (isolated lymphocytes; [19]): 23,000 Decays Per Min | Decays Per Min of 3H Thymidine Incorporated into Isolated Lymphocytes, PWM Stimulation (isolated lymphocytes; [19]): 21,000 Decays Per Min | Change in 3H Thymidine incorporation, PWM Stimulation (isolated lymphocytes; after minus before treatment, change in control -14,000): +4,000 Decays Per Min | Change in 3H Thymidine incorporation, PHA Stimulation (isolated lymphocytes; after minus before treatment, change in control -22,000): -5,000 Decays Per Min | Change in 3H Thymidine incorporation, ConA Stimulation (isolated lymphocytes; after minus before treatment, change in control -29,000): -20,000 Decays Per Min | Effect on decline in lymphocyte function (in words) (isolated lymphocytes; lambs, 0.05% HMB diet): tended to effect the decline in lymphocyte function | M. hyopneumoniae colonies by fluorescent antibody technique (in words) (Mycoplasma hyopneumoniae; HMB-fed pigs): decreased | Prevention of Mycoplasmal lung damage (in words) (Mycoplasma hyopneumoniae; HMB-fed pigs infected with M. hyopneumoniae): can prevent some of the lung damage associated with a Mycoplasmal lung agent | Lung or bronchi evaluations (in words) (Mycoplasma hyopneumoniae; HMB-fed pigs vs control): no significant differences were seen in the lung or bronchi evaluations | M. hyopneumoniae antibody titers (in words) (Mycoplasma hyopneumoniae; HMB-fed pigs vs control): no significant differences | Lung fluorescent antibodies to M. hyopneumoniae (Mycoplasma hyopneumoniae; HMB-fed pigs, control 12.6): 10.3 | % lung showing lesions (Mycoplasma hyopneumoniae; HMB-fed pigs, control 18.7): 13.7% | M. hyopneumoniae peak titers (Mycoplasma hyopneumoniae; HMB-fed pigs, serum complement fixation, control 7.1): 6.7 | Extent of mycoplasmal lung infection (in words) (Mycoplasma hyopneumoniae; vs KIC-fed or control animals, not statistically significant): lesser extent of mycoplasmal lung infection than did KIC-fed or control animals | Nasal degeneration due to bordetella infection (in words) [2]: significant decrease in nasal degeneration due to bordetella infection | Severity of nasal turbinate lesions (in words) [2]: less severe lesions of the nasal turbinates | Nasal degeneration scores (0 = no lesion) ([2]; highest score 3 = moderate degeneration, control 1.6, * p < .05): 0.8 | Red blood cell titers (dilution) day 10-15 [3]: 15.5 dilution | Size of spleen and iliac lymph node (in words) [4]: smaller in HMB-fed animals | Iliac lymph node weight ([4]; control 3.8, * p < .05): 3.3 g | Spleen weight ([4]; control 101): 94 g | Bacteria cultured in the bronchi (in words) [5]: fewer bacteria cultured in the bronchi | Bronchi, presence of bacteria ([5]; control 1.1): 0.8 | Activation of immune function of T lymphocytes relative to KIC (in words) (T lymphocytes [6]): markedly more effective for activating the immune function of T lymphocytes | Rumen destruction (in words) [7]: not subject to significant rumen destruction

CC(C)CC(=O)C(=O)O [KIC, α-keto-isocaproic acid]
Stability in rumen environment (in words) [1]: rapidly destroyed by the rumen bacteria | KIC / HMB in rumen fluid [1, 13]: 30 µM | KIC / HMB in rumen fluid [1, 14]: 15 µM | KIC / HMB in rumen fluid [1, 15]: 4 µM | KIC / HMB in rumen fluid [1, 16]: 2 µM | KIC / HMB in rumen fluid [1, 17]: 2 µM | KIC / HMB in rumen fluid [1, 18]: 1 µM | Direct effect on the immune system (in words) (lymphocytes): have no effect on he immune system directly | Effect on blastogenesis (in words) (lymphocytes): had no effects on blastogenesis | activation at 1000 µM (lymphocytes): -3 ± 7% | Amount of KIC required to replace leucine [8]: two to three times as much KIC as the nutritionally required amount of leucine | Cholesterol in meat, milk and eggs (in words) ([9]; U.S. Pat. Nos. 4,760,090 and 4,760,531): cholesterol reduction in meat, milk and eggs | Milk production (in words) ([9]; lactating domestic animals, U.S. Pat. No. 4,758,593): the quantity of milk produced may be increased | Egg production (in words) ([9]; laying chickens, U.S. Pat. No. 4,760,531): can also sometimes be increased | Wool production (in words) ([9]; mature sheep, U.S. Pat. No. 4,760,090): the amount of wool produced may also be increased | Weight gain and/or feed efficiencies (in words) ([9]; milligram amounts of KIC, U.S. Pat. Nos. 4,760,090 and 4,883,817): some increases in the rates of weight gain and/or feed efficiencies | Blastogenesis function (in words) (T lymphocytes [10]): activating the blastogenesis function of the immune systems | Plasma cortisol levels (in words) [11]: will usually decrease plasma cortisol levels

CC(C)C[C@H](N)C(=O)O [Leucine, L-leucine]
Direct effect on the immune system (in words) (lymphocytes): have no effect on he immune system directly | Effect on blastogenesis (in words) (lymphocytes): tended to suppress blastogenesis | activation at 1000 µM (lymphocytes): -12 ± 6%

CC(C)(O)CC(=O)O [Na-HMB]
Hygroscopicity (in words) [12]: more hydroscopic than Ca-HMB

CC(O)(CC(=O)O)CC(=O)O [β-hydroxy-β-methyl glutarate]
Effect on blastogenesis (in words) (lymphocytes): increased blastogenesis slightly | activation at 1000 µM (lymphocytes): 28%

CC(O)CC(=O)O (stereo not drawn) [β-hydroxybutyrate, β-hydroxy butyrate]
Effect on blastogenesis (in words) (lymphocytes): increased blastogenesis slightly | activation at 1000 µM (lymphocytes): 25%
